{"source": "patent US20230173087A1", "about": "“ANTIBODY DRUG CONJUGATES WITH CLEAVABLE LINKERS” (Heidelberg Pharma Research GmbH, priority 2019, published 2023)", "key": {"[1]": {"test_system": "SKBR-3 (breast cancer) cells", "assay": "Cytotoxicity, chemiluminescent BrdU-ELISA incorporation assay on SKBR-3 cells", "assay_type": "cell-based", "conditions": "as antibody conjugate", "procedure": "Cytotoxic activity of Trastuzumab (Anti-Her2neu-specific antibody)-amatoxin conjugates was evaluated in vitro on HER2-positive tumor cell lines SKBR-3 (breast cancer), NCI-N87 (gastric cancer), and JIMT-1 (breast cancer) using a chemiluminescent BrdU-ELISA incorporation assay (Roche)."}, "RNA polymerase II": {"target": "RNA polymerase II (Homo sapiens, UniProt P24928+P30876)", "conditions": "read-out: KD of complex between amanitin and RNA polymerase II; cited from earlier work"}}}
{"compound": "CC[C@H](C)[C@@H]1NC(=O)CNC(=O)C2Cc3c([nH]c4cc(O)ccc34)[S@+]([O-])CC(NC(=O)CNC1=O)C(=O)NC(CC(N)=O)C(=O)N1CC(O)CC1C(=O)N[C@@H]([C@@H](C)[C@@H]1COC(c3ccc(NC(=O)[C@H](C)NC(=O)C(NC(=O)CCN4C(=O)C=CC4=O)C(C)C)cc3)O1)C(=O)N2", "note": "(stereo partly drawn) [HDP 30.2684, α-Amanitin-(BMP-Val-Ala-4-amino-benzylidenacetal)]", "values": [{"measurement": "effectiveness in vitro compared to HDP 30.1699", "setting": "[1]", "value": "as effective as HDP 30.1699"}]}
{"compound": "amanitin", "values": [{"measurement": "Kd", "setting": "RNA polymerase II", "value": 3, "unit": "nM"}]}
